PMC11079024, “Identification of a family of species-selective complex I inhibitors as potential anthelmintics” (Nature Communications, 2024)
Read-outs that look alike come from different tables or passages of the source.

Experiments:
[1] = molecular target: C. elegans (N2) complex I (NADH:ubiquinone oxidoreductase) (Caenorhabditis elegans, UniProt P24887+Q93873+Q94360); experiment: biochemical; type: biochemical; conditions: for activity at 0.0001 µM / activity at 0.0005 µM / activity at 0.001 µM / activity at 0.0025 µM / activity at 0.005 µM / activity at 0.013 µM / activity at 0.025 µM / activity at 0.063 µM / activity at 0.125 µM / activity at 0.313 µM / activity at 0.625 µM / activity at 1.5 µM / activity at 3 µM / activity at 15 µM / activity at 37.5 µM / activity at 75 µM: read-out: C. elegans mitochondrial complex I activity; for Log IC50 C. elegans complex I: log10 of IC50 in µM, C. elegans mitochondria
Chain of C. elegans (N2) complex I (NADH:ubiquinone oxidoreductase) (Q94360 17-199): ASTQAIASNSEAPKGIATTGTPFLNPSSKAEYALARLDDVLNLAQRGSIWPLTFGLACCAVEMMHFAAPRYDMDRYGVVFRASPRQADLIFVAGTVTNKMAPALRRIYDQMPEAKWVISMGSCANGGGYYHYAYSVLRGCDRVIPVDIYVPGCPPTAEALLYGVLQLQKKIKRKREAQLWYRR
Chain of C. elegans (N2) complex I (NADH:ubiquinone oxidoreductase) (P24887 whole entry): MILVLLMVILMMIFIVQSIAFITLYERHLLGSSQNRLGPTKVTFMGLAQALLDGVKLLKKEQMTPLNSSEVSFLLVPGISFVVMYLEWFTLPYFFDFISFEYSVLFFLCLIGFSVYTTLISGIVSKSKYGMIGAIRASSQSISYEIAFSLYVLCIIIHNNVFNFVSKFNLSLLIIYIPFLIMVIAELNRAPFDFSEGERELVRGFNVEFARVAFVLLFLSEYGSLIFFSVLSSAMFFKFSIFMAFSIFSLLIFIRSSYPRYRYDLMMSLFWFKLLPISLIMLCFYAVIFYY
Chain of C. elegans (N2) complex I (NADH:ubiquinone oxidoreductase) (Q93873 31-482): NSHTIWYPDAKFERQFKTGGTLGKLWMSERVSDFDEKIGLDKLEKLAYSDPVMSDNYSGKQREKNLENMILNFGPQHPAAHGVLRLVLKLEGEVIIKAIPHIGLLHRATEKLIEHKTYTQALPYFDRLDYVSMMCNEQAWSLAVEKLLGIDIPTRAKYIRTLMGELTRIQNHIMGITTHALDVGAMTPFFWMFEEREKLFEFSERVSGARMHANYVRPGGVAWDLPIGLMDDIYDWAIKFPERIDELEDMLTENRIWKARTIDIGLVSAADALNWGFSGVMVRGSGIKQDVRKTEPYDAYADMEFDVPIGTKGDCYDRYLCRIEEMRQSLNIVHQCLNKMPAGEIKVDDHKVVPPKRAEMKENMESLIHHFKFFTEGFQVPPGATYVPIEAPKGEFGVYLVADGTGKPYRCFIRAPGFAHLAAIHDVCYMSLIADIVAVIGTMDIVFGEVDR
Procedure, shortened: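 Mitochondria, 0.2 mg/mL protein, freeze-thawed three times, assayed in 25 mM KPi pH 7.5 with BSA, 80 μM NADH, 60 μM decylubiquinone, 160 μM DCIP, antimycin A and KCN. Rate from initial linear slope of A600 over 15 min. % of solvent control.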

[2] = molecular target: B. taurus (heart) complex I (Bos taurus, UniProt P03887+P17694+P42026); experiment: biochemical; type: biochemical; conditions: for activity at 0.0001 µM / activity at 0.0005 µM / activity at 0.001 µM / activity at 0.0025 µM / activity at 0.005 µM / activity at 0.013 µM / activity at 0.025 µM / activity at 0.063 µM / activity at 0.125 µM / activity at 0.313 µM / activity at 0.625 µM / activity at 1.5 µM / activity at 3 µM / activity at 15 µM / activity at 37.5 µM / activity at 75 µM: read-out: B. taurus mitochondrial complex I activity; for Log IC50 B. taurus complex I: log10 of IC50 in µM, B. taurus mitochondria
Chain of B. taurus (heart) complex I (P03887 whole entry): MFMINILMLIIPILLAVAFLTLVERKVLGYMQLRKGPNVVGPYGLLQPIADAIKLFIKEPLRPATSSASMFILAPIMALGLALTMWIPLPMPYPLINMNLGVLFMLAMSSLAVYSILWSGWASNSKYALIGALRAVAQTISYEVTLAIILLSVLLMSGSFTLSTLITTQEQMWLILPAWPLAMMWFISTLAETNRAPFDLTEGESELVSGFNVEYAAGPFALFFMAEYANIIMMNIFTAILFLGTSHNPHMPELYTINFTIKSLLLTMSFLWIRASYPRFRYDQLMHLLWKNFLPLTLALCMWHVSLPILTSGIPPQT
Chain of B. taurus (heart) complex I (P17694 34-463): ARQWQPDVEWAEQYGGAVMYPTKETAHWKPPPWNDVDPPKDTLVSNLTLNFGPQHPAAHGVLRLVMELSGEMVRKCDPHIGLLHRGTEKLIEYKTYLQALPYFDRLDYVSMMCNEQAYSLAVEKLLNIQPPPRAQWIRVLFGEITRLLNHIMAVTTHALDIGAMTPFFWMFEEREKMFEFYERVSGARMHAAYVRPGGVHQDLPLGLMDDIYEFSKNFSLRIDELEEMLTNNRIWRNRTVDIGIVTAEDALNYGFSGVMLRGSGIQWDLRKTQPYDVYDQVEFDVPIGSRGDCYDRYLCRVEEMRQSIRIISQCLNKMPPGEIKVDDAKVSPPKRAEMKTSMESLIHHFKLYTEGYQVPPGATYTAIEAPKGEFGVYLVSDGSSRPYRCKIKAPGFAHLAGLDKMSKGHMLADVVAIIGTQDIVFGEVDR
Chain of B. taurus (heart) complex I (P42026 38-216): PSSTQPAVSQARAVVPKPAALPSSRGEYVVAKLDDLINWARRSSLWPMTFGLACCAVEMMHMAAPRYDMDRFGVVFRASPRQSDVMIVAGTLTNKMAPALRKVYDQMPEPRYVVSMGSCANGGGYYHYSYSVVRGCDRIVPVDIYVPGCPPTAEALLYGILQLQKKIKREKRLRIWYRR
Procedure, shortened: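 Complex I activity followed as DCIP reduction (600 nm, 30 s reads, 15 min) with 80 μM NADH and 60 μM decylubiquinone in 25 mM KPi pH 7.5 containing 2 μM antimycin A and 2 mM KCN. Freeze-thawed mouse or bovine heart mitochondria at 0.2 mg/mL; initial-rate percent of solvent control, single-point 100 μM or dose-response.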

[3] = in vitro complex I dose response on C. elegans mitochondria, average of at least two biological replicates, fit in R (DRC), read-out: IC50 C. elegans complex I
[4] = wild-type (N2) mitochondria, read-out: C. elegans Complex I IC50
[5] = wild-type C. elegans mitochondria, estimated from fitted dose-response curves, read-out: C. elegans Complex I IC50
[6] = B. taurus heart mitochondria, estimated from fitted dose-response curves, read-out: B. taurus Complex I IC50
[7] = wild-type C. elegans, individual Rep1-Rep4, read-out: percent in vitro complex I activity relative to solvent control, single replicates
[8] = wild-type C. elegans, mean of Rep1-4, read-out: percent in vitro complex I activity relative to solvent control, Mean

Work on Cc1ccc(SCCCCn2cnc3ccccc32)cc1 [Compound 7925333] yielded an activity at 0.0001 µM [1] of 91.6%, an activity at 0.0005 µM [1] of 94.2% and an activity at 0.001 µM [1] of 101%. The activity at 0.0025 µM [1] was 95.1%, the activity at 0.005 µM [1] was 100% and the activity at 0.013 µM [1] was 91.2%. The activity at 0.025 µM [1] was 93.7%, the activity at 0.063 µM [1] was 96.6% and the activity at 0.125 µM [1] was 81%. For the same compound, the activity at 0.313 µM [1] was 64.2%, the activity at 0.625 µM [1] was 65.6% and the activity at 1.5 µM [1] was 44%. It also gave an activity at 3 µM [1] of 28.6%, an activity at 15 µM [1] of 10.5% and an activity at 37.5 µM [1] of 5.81%. The activity at 75 µM [1] was 7.08%, the IC50 [1, 3] was 1.04 µM and the “Log IC50 C. elegans complex I” value [1] was 0.017 µM. For the same compound, the IC50 [1, 4] was 1.04 µM, the IC50 [1, 5] was 1.04 µM and the IC50 [2, 6] was 7.31 µM. For the same compound, the activity at 0.0001 µM [2] was 90.9%, the activity at 0.0005 µM [2] was 87.2% and the activity at 0.001 µM [2] was 87.5%. It also gave an activity at 0.0025 µM [2] of 83.2%, an activity at 0.005 µM [2] of 83.9% and an activity at 0.013 µM [2] of 89.8%. For the same compound, the activity at 0.025 µM [2] was 94.2%, the activity at 0.063 µM [2] was 97.7% and the activity at 0.125 µM [2] was 99.3%. It also gave an activity at 0.313 µM [2] of 99.3%, an activity at 0.625 µM [2] of 90.8% and an activity at 1.5 µM [2] of 78.5%. It also gave an activity at 3 µM [2] of 70%, an activity at 15 µM [2] of 25.1% and an activity at 37.5 µM [2] of 9.48%. The activity at 75 µM [2] was 1.13% and the “Log IC50 B. taurus complex I” value [2] was 0.86 µM.

Cc1ccc(SCCCn2cnc3ccccc32)cc1 [Compound 7926035] was tested, and the activity at 0.0001 µM [1] was 90.2%, the activity at 0.0005 µM [1] was 95.5% and the activity at 0.001 µM [1] was 88.3%. It also gave an activity at 0.0025 µM [1] of 100%, an activity at 0.005 µM [1] of 101% and an activity at 0.013 µM [1] of 96.9%. The activity at 0.025 µM [1] was 95.3%, the activity at 0.063 µM [1] was 85.5% and the activity at 0.125 µM [1] was 96.1%. The activity at 0.313 µM [1] was 69.9%, the activity at 0.625 µM [1] was 33.2% and the activity at 1.5 µM [1] was 33.2%. It also gave an activity at 3 µM [1] of 8.58%, an activity at 15 µM [1] of 3.26% and an activity at 37.5 µM [1] of 1.04%. For the same compound, the activity at 75 µM [1] was 3.35%, the IC50 [1, 3] was 0.54 µM and the “Log IC50 C. elegans complex I” value [1] was -0.27 µM. For the same compound, the IC50 [1, 5] was 0.54 µM, the IC50 [2, 6] was 3.59 µM and the activity at 0.0001 µM [2] was 101%. The activity at 0.0005 µM [2] was 105%, the activity at 0.001 µM [2] was 99.3% and the activity at 0.0025 µM [2] was 106%. For the same compound, the activity at 0.005 µM [2] was 102%, the activity at 0.013 µM [2] was 101% and the activity at 0.025 µM [2] was 100%. The activity at 0.063 µM [2] was 98.8%, the activity at 0.125 µM [2] was 97% and the activity at 0.313 µM [2] was 98.3%. The activity at 0.625 µM [2] was 78.8%, the activity at 1.5 µM [2] was 78.8% and the activity at 3 µM [2] was 41.2%. The activity at 15 µM [2] was 10%, the activity at 37.5 µM [2] was 2.81% and the activity at 75 µM [2] was 1.94%. The “Log IC50 B. taurus complex I” value [2] was 0.56 µM.

For Cc1nc2ccccc2n1Cc1ccc(Br)cc1 [Compound 5567167], the remaining activity at 0.0001 µM [1, 7] was 94%, the remaining activity at 0.0001 µM [1, 8] was 85.9% and the remaining activity at 0.0005 µM [1, 7] was 85.1%. It also gave a remaining activity at 0.0005 µM [1, 8] of 85.6%, a remaining activity at 0.001 µM [1, 7] of 85.9% and a remaining activity at 0.001 µM [1, 8] of 84.4%. The remaining activity at 0.0025 µM ([1]; 0.0025 µM, wild-type C. elegans, mean of Rep1-4, read-out: percent in vitro complex I activity relative to solvent control, Mean) was 79.7%, the remaining activity at 0.005 µM [1, 7] was 78% and the remaining activity at 0.005 µM [1, 8] was 79.5%. The remaining activity at 0.013 µM [1, 7] was 72.2%, the remaining activity at 0.013 µM [1, 8] was 70.5% and the remaining activity at 0.025 µM [1, 7] was 66.7%. For the same compound, the remaining activity at 0.025 µM [1, 8] was 62%, the remaining activity at 0.063 µM [1, 7] was 38.8% and the remaining activity at 0.063 µM [1, 8] was 36%. It also gave a remaining activity at 0.125 µM [1, 7] of 23.6%, a remaining activity at 0.125 µM [1, 8] of 23.7% and a remaining activity at 0.313 µM [1, 7] of 8.78%. The remaining activity at 0.313 µM [1, 8] was 11.9%, the remaining activity at 0.625 µM ([1]; 0.625 µM, wild-type C. elegans, mean of Rep1-4, read-out: percent in vitro complex I activity relative to solvent control, Mean) was 2.34% and the remaining activity at 1.5 µM ([1]; 1.5 µM, wild-type C. elegans, mean of Rep1-4, read-out: percent in vitro complex I activity relative to solvent control, Mean) was 0.485%. For the same compound, the remaining activity at 3 µM ([1]; 3 µM, wild-type C. elegans, mean of Rep1-4, read-out: percent in vitro complex I activity relative to solvent control, Mean) was 0.612%, the remaining activity at 15 µM [1, 7] was 0% and the remaining activity at 15 µM [1, 8] was 0%. For the same compound, the remaining activity at 37.5 µM [1, 7] was 0%, the remaining activity at 37.5 µM [1, 8] was 0% and the remaining activity at 75 µM ([1]; 75 µM, wild-type C. elegans, mean of Rep1-4, read-out: percent in vitro complex I activity relative to solvent control, Mean) was 0.911%. The IC50 [1, 3] was 0.032 µM, the “Log IC50 C. elegans complex I” value [1] was -1.49 µM and the IC50 [1, 4] was 0.032 µM. For the same compound, the IC50 [1, 5] was 0.032 µM, the IC50 [2, 6] was 0.209 µM and the IC50 ([2]; in vitro complex I dose response on B. taurus mitochondria, average of at least two biological replicates, fit in R (DRC), read-out: IC50 B. taurus complex I) was 0.21 µM. The “Log IC50 B. taurus complex I” value [2] was -0.68 µM.

In the case of Nc1nc2ccccc2n1CCOc1ccc(Br)cc1 [Compound 5842535], the activity at 0.0001 µM [1] is reported as 80%, the activity at 0.0005 µM [1] is reported as 92.9% and the activity at 0.001 µM [1] is reported as 87.5%. The activity at 0.0025 µM [1] was 88.5%, the activity at 0.005 µM [1] was 89.3% and the activity at 0.013 µM [1] was 88.3%. It also gave an activity at 0.025 µM [1] of 81.7%, an activity at 0.063 µM [1] of 79.5% and an activity at 0.125 µM [1] of 81.6%. The activity at 0.313 µM [1] was 76.9%, the activity at 0.625 µM [1] was 83.9% and the activity at 1.5 µM [1] was 76.4%. It also gave an activity at 3 µM [1] of 65%, an activity at 15 µM [1] of 17.8% and an activity at 37.5 µM [1] of 0.13%. The activity at 75 µM [1] was 0%, the IC50 [1, 3] was 6.2 µM and the “Log IC50 C. elegans complex I” value [1] was 0.79 µM. It also gave an IC50 ([1]; wild-type C. elegans mitochondria, read-out: C. elegans Complex I IC50) of 6.2 µM, an IC50 ([2]; B. taurus heart mitochondria, read-out: B. taurus Complex I IC50) of 12.7 µM and an activity at 0.0001 µM [2] of 89.6%. It also gave an activity at 0.0005 µM [2] of 91.9%, an activity at 0.001 µM [2] of 90.7% and an activity at 0.0025 µM [2] of 94.2%. It also gave an activity at 0.005 µM [2] of 96.1%, an activity at 0.013 µM [2] of 92.4% and an activity at 0.025 µM [2] of 87.8%. The activity at 0.063 µM [2] was 92.4%, the activity at 0.125 µM [2] was 92% and the activity at 0.313 µM [2] was 85.5%. The activity at 0.625 µM [2] was 84.7%, the activity at 1.5 µM [2] was 82.8% and the activity at 3 µM [2] was 67.2%. The activity at 15 µM [2] was 33.6%, the activity at 37.5 µM [2] was 3.2% and the activity at 75 µM [2] was 1.7%. The “Log IC50 B. taurus complex I” value [2] was 1.10 µM.
